What all share (format): biochemical
The nature of assay [1]: DPPH radical scavenging activity. The conditions noted are these: isolated APs; 0.02% ethanolic DPPH; EC50 from linear relation of scavenging rate and concentration; mean ± SD, n = 3. The method, then:
(§1) The DPPH radical, hydroxyl radical, superoxide anion radical, and ABTS cation radical scavenging activities were measured according to the previous methods. The results were expressed as a half elimination ratio (EC50) defined as the concentration by which a sample caused a 50% decrease of the initial concentration of DPPH radical, hydroxyl radical, superoxide anion radical, and ABTS cation radical, respectively, and the calculation method of EC50 was according to linear relationship of radical scavenging rates and concentrations of samples [6, 26].
Two millilitres of samples consisting of DW and different concentrations of the analytes were placed in cuvettes, and 500 μL of an ethanolic solution of DPPH (0.02%) and 1.0 mL of ethanol were added. A control sample containing the DPPH solution without the sample was also prepared. In the blank, the DPPH solution was substituted with ethanol. The antioxidant activity of the sample was evaluated using the inhibition percentage of the DPPH radical with the following equation: DPPH radical scavenging activity (%) = (A0 + Ab − A)/A0 × 100% (2) where A is the absorbance rate of the sample, A0 is the control group absorbance, and Ab is the blank absorbance.
In general terms: DPPH is a stable violet radical that fades when it is reduced.

Assay [2] can be described thus: Hydroxyl radical scavenging activity (1,10-phenanthroline/FeSO4/H2O2). Particulars: isolated APs; 37 °C, 60 min, absorbance 536 nm; mean ± SD, n = 3. The protocol:
as §1
First, 1.0 mL of a 1.87 mM 1,10-phenanthroline solution and 2.0 mL of the sample were added to a screw-capped tube and mixed. Then, 1.0 mL of a FeSO4·7H2O solution (1.87 mM) was added to the mixture. The reaction was initiated by adding 1.0 mL of H2O2 (0.03%, v/v). After being incubated at 37 °C for 60 min in a water bath, the absorbance of the reaction mixture was measured at 536 nm against a reagent blank. […] The hydroxyl radical scavenging activity was calculated using the following formula: Hydroxyl radical scavenging activity (%) = [(As − An)/(Ab − An)] × 100% (3) where As, An, and Ab are the absorbance values determined at 536 nm of the sample, the negative control, and the blank after the reaction, respectively.

Assay [3] is described as follows: ABTS cation radical scavenging activity. Particulars: isolated APs; 5 mM PBS pH 7.4, 10 min, absorbance 734 nm; mean ± SD, n = 3. The method, then: as §1
The ABTS radical cation was generated by mixing ABTS stock solution (7 mM) with potassium persulphate (2.45 mM). The mixture was left in the dark at room temperature for 16 h. The ABTS radical solution was diluted in 5 mM PBS pH 7.4, to an absorbance of 0.70 ± 0.02 at 734 nm. One milliliter of diluted ABTS radical solution was mixed with one milliliter of different concentrations of samples. 10 min later, the absorbance was measured at 734 nm against the corresponding blank. The ABTS scavenging activity of samples was calculated using the following equation: ABTS scavenging activity (%) = [(Acontrol − Asample)/Acontrol] × 100% (5) where Acontrol is the absorbance without sample and Asample is the absorbance with sample.

Assay [4] in a line: Superoxide anion radical scavenging activity (NBT/NADH/PMS). Particulars: isolated APs; 25 °C, 5 min, absorbance 560 nm; mean ± SD, n = 3. The protocol:
as §1
The superoxide anions were generated in 1 mL of nitrotetrazolium blue chloride (2.52 mM), 1 mL of nicotinamide adenine dinucleotide hydride (NADH) ([…]) and 1 mL of different sample concentrations. The reaction was initiated by adding 1 ml of phenazine methosulphate solution (120 μM) to the reaction mixture. The absorbance was measured at 560 nm against the corresponding blank after 5 min incubation at 25 °C. The superoxide anion radical scavenging capacity was calculated using the following equation: Superoxide anion radical scavenging activity (%) = [(Acontrol − Asample)/Acontrol] × 100% (4) where Acontrol is the absorbance without sample and Asample is the absorbance with sample.

Marks after values point to notes of the source that are not given here. No end group written: not given here.

On to “WIDPDG [TGP-2, antioxidant peptide from blood cockle (T. granosa) protein hydrolysate]”, for which the “Half Elimination Ratio (EC50) DPPH Radical” value in assay [1] is recorded as 1.82 ± 0.16 ^c mg/mL. Also, the “Half Elimination Ratio (EC50) Hydroxyl Radical” value in assay [2] is listed as 1.54 ± 0.11 ^b mg/mL. Besides, the “Half Elimination Ratio (EC50) ABTS Cation Radical” value in assay [3] was 2.56 ± 0.23 ^b mg/mL. Also, the “Half Elimination Ratio (EC50) Superoxide Anion Radical” value in assay [4] is given as 2.49 ± 0.17 ^b mg/mL.

The record behind these values is publication PMC6563033, “Purification and Characterization of Antioxidant Peptides Derived from Protein Hydrolysate of the Marine Bivalve Mollusk Tergillarca granosa” (Marine Drugs, 2019).
